Test results taken from PubChem BioAssay AID180 (DTP/NCI, 2004).
Values joined by “and” are separate entries in the source; they are usually repeats but may differ in a detail not shown here. Equal values may be shown once.

System: BDF1 mice, Adenocarcinoma 755 s.c., tumor weight T/C
Experiment: NCI In Vivo Anticancer Drug Screen. Data for tumor model Adenocarcinoma 755 (subcutaneous) in B6D2F1 (BDF1) mice
Conditions: endpoint: mean tumor weight, higher = larger tumour
Outline: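 Values express treated (T) relative to vehicle-dosed control (C) animals, based on survival or tumour size measured after compound treatment of mice bearing a transplanted tumour.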

[1] = dose: 25.0 mg/kg/injection, schedule: Q01DX011 (ip), vehicle: methylcellulose (MC)
[2] = dose: 75.0 mg/kg/injection, schedule: Q01DX011 (ip), vehicle: carboxymethylcellulose (CMC)
[3] = dose: 75.0 mg/kg/injection, schedule: Q01DX011 (ip), vehicle: methylcellulose (MC)

With CC1CN1P(=S)(N1CCCC1)N1CC1C (configuration not stated) the T/C (dose: 14.0 mg/kg/injection, schedule: Q01DX011 (ip), vehicle: carboxymethylcellulose (CMC)) was 82 % of control, the T/C (dose: 14.0 mg/kg/injection, schedule: Q01DX011 (ip), vehicle: saline) was 63 % of control and the T/C (dose: 28.0 mg/kg/injection, schedule: Q01DX011 (ip), vehicle: carboxymethylcellulose (CMC)) was 58 % of control. The T/C (dose: 28.0 mg/kg/injection, schedule: Q01DX011 (ip), vehicle: saline) was 43 % of control, the T/C (dose: 57.0 mg/kg/injection, schedule: Q01DX011 (ip), vehicle: carboxymethylcellulose (CMC)) was 15 % of control and the T/C (dose: 57.0 mg/kg/injection, schedule: Q01DX011 (ip), vehicle: saline) was 21 % of control.
For CCOCCNc1ncnc2c1cnn2C, the T/C (dose: 12.5 mg/kg/injection, schedule: Q01DX011 (ip), vehicle: methylcellulose (MC)) was 112 % of control, the T/C [1] was 65 % of control and the T/C (dose: 50.0 mg/kg/injection, schedule: Q01DX011 (ip), vehicle: methylcellulose (MC)) was 38 % of control. The T/C (dose: 100.0 mg/kg/injection, schedule: Q01DX011 (ip), vehicle: methylcellulose (MC)) was 17 % of control.
In the case of O=c1ccn(C2OC(CO)C(O)C2O)c(=O)[nH]1 (configuration not stated), the T/C (dose: 17.5 mg/kg/injection, schedule: Q01DX011 (ip), vehicle: other) is reported as 57 % of control, the T/C (dose: 35.0 mg/kg/injection, schedule: Q01DX011 (ip), vehicle: other) is reported as 39 % of control and the T/C (dose: 35.0 mg/kg/injection, schedule: Q01DX011 (ip), vehicle: saline) is reported as 30 % of control. The T/C (dose: 70.0 mg/kg/injection, schedule: Q01DX011 (ip), vehicle: other) was 105 % of control, the T/C (dose: 70.0 mg/kg/injection, schedule: Q01DX011 (ip), vehicle: saline) was 75 % of control and the T/C (dose: 140.0 mg/kg/injection, schedule: Q01DX011 (ip), vehicle: other) was 82 % of control. For the same molecule, the T/C (dose: 140.0 mg/kg/injection, schedule: Q01DX011 (ip), vehicle: saline) was 32 % of control, the T/C (dose: 280.0 mg/kg/injection, schedule: Q01DX011 (ip), vehicle: other) was 56 % of control and the T/C (dose: 280.0 mg/kg/injection, schedule: Q01DX011 (ip), vehicle: saline) was 42 % of control.
O=c1[nH]c2nc(Cl)nc(Cl)c2[nH]1 was tested, and the T/C (dose: 25.0 mg/kg/injection, schedule: Q01DX011 (ip), vehicle: carboxymethylcellulose (CMC)) was 54 % of control, the T/C [2] was 117 % of control and the T/C (dose: 225.0 mg/kg/injection, schedule: Q01DX011 (ip), vehicle: carboxymethylcellulose (CMC)) was 92 % of control.
With CCC(C)Cn1cnc2c(SCc3ccccc3)nc(N)nc21 (configuration not stated) the T/C (dose: 37.5 mg/kg/injection, schedule: Q01DX011 (ip), vehicle: carboxymethylcellulose (CMC)) was 68 % of control, the T/C [2] was 32 % of control and the T/C (dose: 150.0 mg/kg/injection, schedule: Q01DX011 (ip), vehicle: carboxymethylcellulose (CMC)) was 21 % of control. For the same molecule, the T/C (dose: 300.0 mg/kg/injection, schedule: Q01DX011 (ip), vehicle: carboxymethylcellulose (CMC)) was 13 % of control.
In the case of Cn1c(=O)c2[nH]c(COCc3nc4c([nH]3)c(=O)n(C)c(=O)n4C)nc2n(C)c1=O, the T/C [1] is reported as 48 % of control, the T/C [3] is reported as 65 % of control and the T/C (dose: 225.0 mg/kg/injection, schedule: Q01DX011 (ip), vehicle: methylcellulose (MC)) is reported as 21 % of control.
For CC(C)CSc1nc(N)nc2c1ncn2C1OC(CO)C(O)C1O (configuration not stated), the T/C (dose: 2.32 mg/kg/injection, schedule: Q01DX011 (ip), vehicle: methylcellulose (MC)) was 54 % of control, the T/C (dose: 4.65 mg/kg/injection, schedule: Q01DX011 (ip), vehicle: methylcellulose (MC)) was 37 % of control and the T/C (dose: 9.3 mg/kg/injection, schedule: Q01DX011 (ip), vehicle: methylcellulose (MC)) was 25 % of control. The T/C (dose: 18.75 mg/kg/injection, schedule: Q01DX011 (ip), vehicle: methylcellulose (MC)) was 12 % of control and 15 % of control, the T/C (dose: 37.5 mg/kg/injection, schedule: Q01DX011 (ip), vehicle: methylcellulose (MC)) was 3 % of control and the T/C [3] was 2 % of control. The T/C (dose: 150.0 mg/kg/injection, schedule: Q01DX011 (ip), vehicle: methylcellulose (MC)) was 2 % of control.
With CN1CC(=O)NC1=O the T/C (dose: 250.0 mg/kg/injection, schedule: Q01DX011 (ip), vehicle: saline) was 105 % of control, the T/C (dose: 500.0 mg/kg/injection, schedule: Q01DX011 (ip), vehicle: saline) was 93 % of control and the T/C (dose: 1000.0 mg/kg/injection, schedule: Q01DX011 (ip), vehicle: saline) was 81 % of control.
In the case of C[C@]12CCC(=O)C=C1CC[C@@H]1[C@@H]2[C@@H](O)C[C@@]2(C)[C@H]1CC[C@]2(O)C(=O)COC(=O)CCC(=O)O, the T/C (dose: 700.0 mg/kg/injection, schedule: Q01DX011 (sc), vehicle: steriod suspending solution) is reported as 10 % of control.
O=C(OCC1OC(n2cnc3c(=S)nc[nH]c32)C(OC(=O)c2ccc(Cl)cc2)C1OC(=O)c1ccc(Cl)cc1)c1ccc(Cl)cc1 (configuration not stated) was tested, and the T/C (dose: 50.0 mg/kg/injection, schedule: Q01DX011 (ip), vehicle: carboxymethylcellulose (CMC)) was 85 % of control and the T/C (dose: 400.0 mg/kg/injection, schedule: Q01DX011 (ip), vehicle: carboxymethylcellulose (CMC)) was 1 % of control and 5 % of control.
